Activity calls are given as the source filed them. The rule behind the calls is not given here.
Assays:
[1] = tested on: Rhizopus; assay: Antifungal activity against Rhizopus at 200 ppm after 72 to 96 hr by disk diffusion method; type: functional; details: read-out: IZ
[2] = tested on: Klebsiella pneumoniae; assay: Antibacterial activity against Klebsiella pneumoniae at 500 ppm after 24 hr by disk diffusion method; type: functional; details: read-out: IZ
[3] = tested on: Nannizzia gypsea; assay: Antifungal activity against Microsporum gypseum at 500 ppm after 72 to 96 hr by disk diffusion method; type: functional; details: read-out: IZ
[4] = tested on: Escherichia coli; assay: Antibacterial activity against Escherichia coli at 500 ppm after 24 hr by disk diffusion method; type: functional; details: read-out: IZ
[5] = tested on: Pseudomonas; assay: Antibacterial activity against Pseudomonas at 500 ppm after 24 hr by disk diffusion method; type: functional; details: read-out: IZ
[6] = tested on: Streptococcus; assay: Antibacterial activity against beta-hemolytic Streptococcus at 200 ppm after 24 hr by disk diffusion method; type: functional; details: read-out: IZ
[7] = tested on: Salmonella typhi; assay: Antibacterial activity against Salmonella enterica subsp. enterica serovar Typhi at 100 ppm after 24 hr by disk diffusion method; type: functional; details: read-out: IZ
[8] = tested on: Rhizopus; assay: Antifungal activity against Rhizopus at 100 ppm after 72 to 96 hr by disk diffusion method; type: functional; details: read-out: IZ
[9] = tested on: Mucor; assay: Antifungal activity against Mucor at 500 ppm after 72 to 96 hr by disk diffusion method; type: functional; details: read-out: IZ
[10] = tested on: Mucor; assay: Antifungal activity against Mucor at 100 ppm after 72 to 96 hr by disk diffusion method; type: functional
[11] = tested on: Aspergillus flavus; assay: Antifungal activity against Aspergillus flavus at 200 ppm after 72 to 96 hr by disk diffusion method; type: functional; details: read-out: IZ
[12] = tested on: Aspergillus flavus; assay: Antifungal activity against Aspergillus flavus at 500 ppm after 72 to 96 hr by disk diffusion method; type: functional; details: read-out: IZ
[13] = tested on: Pseudomonas; assay: Antibacterial activity against Pseudomonas at 200 ppm after 24 hr by disk diffusion method; type: functional; details: read-out: IZ
[14] = tested on: Shigella flexneri; assay: Antibacterial activity against Shigella flexneri at 500 ppm after 24 hr by disk diffusion method; type: functional; details: read-out: IZ
[15] = tested on: Shigella flexneri; assay: Antibacterial activity against Shigella flexneri at 100 ppm after 24 hr by disk diffusion method; type: functional; details: read-out: IZ
[16] = tested on: Shigella flexneri; assay: Antibacterial activity against Shigella flexneri at 200 ppm after 24 hr by disk diffusion method; type: functional; details: read-out: IZ
[17] = tested on: Escherichia coli; assay: Antibacterial activity against Escherichia coli at 200 ppm after 24 hr by disk diffusion method; type: functional; details: read-out: IZ
[18] = tested on: Rhizopus; assay: Antifungal activity against Rhizopus at 500 ppm after 72 to 96 hr by disk diffusion method; type: functional; details: read-out: IZ
[19] = tested on: Nannizzia gypsea; assay: Antifungal activity against Microsporum gypseum at 200 ppm after 72 to 96 hr by disk diffusion method; type: functional; details: read-out: IZ
[20] = tested on: Vibrio cholerae; assay: Antibacterial activity against Vibrio cholerae at 500 ppm after 24 hr by disk diffusion method; type: functional; details: read-out: IZ
[21] = tested on: Klebsiella pneumoniae; assay: Antibacterial activity against Klebsiella pneumoniae at 100 ppm after 24 hr by disk diffusion method; type: functional; details: read-out: IZ
[22] = tested on: Staphylococcus aureus; assay: Antibacterial activity against Staphylococcus aureus at 500 ppm after 24 hr by disk diffusion method; type: functional; details: read-out: IZ
[23] = tested on: Salmonella typhi; assay: Antibacterial activity against Salmonella enterica subsp. enterica serovar Typhi at 200 ppm after 24 hr by disk diffusion method; type: functional; details: read-out: IZ
[24] = tested on: Vibrio cholerae; assay: Antibacterial activity against Vibrio cholerae at 100 ppm after 24 hr by disk diffusion method; type: functional; details: read-out: IZ
[25] = tested on: Staphylococcus aureus; assay: Antibacterial activity against Staphylococcus aureus at 100 ppm after 24 hr by disk diffusion method; type: functional
[26] = tested on: Aspergillus flavus; assay: Antifungal activity against Aspergillus flavus at 100 ppm after 72 to 96 hr by disk diffusion method; type: functional; details: read-out: IZ
[27] = tested on: Streptococcus; assay: Antibacterial activity against beta-hemolytic Streptococcus at 500 ppm after 24 hr by disk diffusion method; type: functional; details: read-out: IZ
[28] = tested on: Mucor; assay: Antifungal activity against Mucor at 200 ppm after 72 to 96 hr by disk diffusion method; type: functional; details: read-out: IZ
[29] = tested on: Klebsiella pneumoniae; assay: Antibacterial activity against Klebsiella pneumoniae at 200 ppm after 24 hr by disk diffusion method; type: functional; details: read-out: IZ
[30] = tested on: Pseudomonas; assay: Antibacterial activity against Pseudomonas at 100 ppm after 24 hr by disk diffusion method; type: functional
[31] = tested on: Staphylococcus aureus; assay: Antibacterial activity against Staphylococcus aureus at 200 ppm after 24 hr by disk diffusion method; type: functional; details: read-out: IZ
[32] = tested on: Nannizzia gypsea; assay: Antifungal activity against Microsporum gypseum at 100 ppm after 72 to 96 hr by disk diffusion method; type: functional; details: read-out: IZ
[33] = tested on: Salmonella typhi; assay: Antibacterial activity against Salmonella enterica subsp. enterica serovar Typhi at 500 ppm after 24 hr by disk diffusion method; type: functional; details: read-out: IZ
[34] = tested on: Vibrio cholerae; assay: Antibacterial activity against Vibrio cholerae at 200 ppm after 24 hr by disk diffusion method; type: functional; details: read-out: IZ
[35] = tested on: Escherichia coli; assay: Antibacterial activity against Escherichia coli at 100 ppm after 24 hr by disk diffusion method; type: functional, organism-based
[36] = tested on: Streptococcus; assay: Antibacterial activity against beta-hemolytic Streptococcus at 100 ppm after 24 hr by disk diffusion method; type: functional, organism-based
[37] = tested on: Aspergillus flavus; assay: Antifungal activity against Aspergillus flavus at 100 units/disk after 72 to 96 hr by disk diffusion method; type: functional
[38] = tested on: Nannizzia gypsea; assay: Antifungal activity against Microsporum gypseum at 100 units/disc after 72 to 96 hr by disc diffusion method; type: functional
[39] = tested on: Mucor; assay: Antifungal activity against Mucor at 100 units/disk after 72 to 96 hr by disk diffusion method; type: functional
[40] = tested on: Rhizopus; assay: Antifungal activity against Rhizopus at 100 units/disk after 72 to 96 hr by disk diffusion method; type: functional
[41] = tested on: Klebsiella pneumoniae; assay: Antibacterial activity against Klebsiella pneumoniae at 5 ug/disk after 24 hr by disk diffusion method; details: read-out: IZ
[42] = tested on: Pseudomonas; assay: Antibacterial activity against Pseudomonas at 5 ug/disk after 24 hr by disk diffusion method; type: functional; details: read-out: IZ
[43] = tested on: Streptococcus; assay: Antibacterial activity against beta-hemolytic Streptococcus at 5 ug/disk after 24 hr by disk diffusion method; type: functional; details: read-out: IZ
[44] = tested on: Shigella flexneri; assay: Antibacterial activity against Shigella flexneri at 5 ug/disc after 24 hr by disk diffusion method; type: functional; details: read-out: IZ
[45] = tested on: Staphylococcus aureus; assay: Antibacterial activity against Staphylococcus aureus at 5 ug/disc after 24 hr by disk diffusion method; details: read-out: IZ
[46] = tested on: Salmonella typhi; assay: Antibacterial activity against Salmonella enterica subsp. enterica serovar Typhi at 5 ug/disk after 24 hr by disk diffusion method; type: functional; details: read-out: IZ
[47] = tested on: Vibrio cholerae; assay: Antibacterial activity against Vibrio cholerae at 5 ug/disc after 24 hr by disk diffusion method; type: functional; details: read-out: IZ

Cc1ccc(C2NC(c3ccc(C)cc3)C(C)(C)c3nnsc32)cc1 (stereo not drawn)
zone of inhibition at 200 ppm [1]: 17 mm | zone of inhibition at 500 ppm [2]: 22 mm | zone of inhibition at 500 ppm [3]: 30 mm | zone of inhibition at 500 ppm [4]: 17 mm | zone of inhibition at 500 ppm [5]: 12 mm | zone of inhibition at 200 ppm [6]: 17 mm | zone of inhibition at 100 ppm [7]: 12 mm | zone of inhibition at 100 ppm [8]: 12 mm | zone of inhibition at 500 ppm [9]: 17 mm | inhibition zone (IZ) [10]: inactive | zone of inhibition at 200 ppm [11]: 12 mm | zone of inhibition at 500 ppm [12]: 12 mm | zone of inhibition at 200 ppm [13]: 12 mm | zone of inhibition at 500 ppm [14]: 17 mm | zone of inhibition at 100 ppm [15]: 12 mm | zone of inhibition at 200 ppm [16]: 17 mm | zone of inhibition at 200 ppm [17]: 12 mm | zone of inhibition at 500 ppm [18]: 22 mm | zone of inhibition at 200 ppm [19]: 22 mm | zone of inhibition at 500 ppm [20]: 17 mm | zone of inhibition at 100 ppm [21]: 17 mm | zone of inhibition at 500 ppm [22]: 30 mm | zone of inhibition at 200 ppm [23]: 12 mm | zone of inhibition at 100 ppm [24]: 12 mm | inhibition zone (IZ) [25]: inactive | zone of inhibition at 100 ppm [26]: 12 mm | zone of inhibition at 500 ppm [27]: 30 mm | zone of inhibition at 200 ppm [28]: 17 mm | zone of inhibition at 200 ppm [29]: 17 mm | inhibition zone (IZ) [30]: inactive | zone of inhibition at 200 ppm [31]: 22 mm | zone of inhibition at 100 ppm [32]: 17 mm | zone of inhibition at 500 ppm [33]: 12 mm | zone of inhibition at 200 ppm [34]: 17 mm | inhibition zone (IZ) [35]: inactive | inhibition zone (IZ) [36]: inactive

OC(Cn1cncn1)(Cn1cncn1)c1ccc(F)cc1F [FLUCONAZOLE]
inhibition zone (IZ) [37]: 20 mm | inhibition zone (IZ) [38]: 20 mm | inhibition zone (IZ) [39]: 20 mm | inhibition zone (IZ) [40]: 20 mm

O=C(O)c1cn(C2CC2)c2cc(N3CCNCC3)c(F)cc2c1=O [CIPROFLOXACIN]
zone of inhibition at 5 µg/disc [41]: 26 mm | zone of inhibition at 5 µg/disc [42]: 23 mm | zone of inhibition at 5 µg/disc [43]: 28 mm | zone of inhibition at 5 µg/disc [44]: 23 mm | zone of inhibition at 5 µg/disc [45]: 25 mm | zone of inhibition at 5 µg/disc [46]: 22 mm | zone of inhibition at 5 µg/disc [47]: 23 mm

CC1(C)c2nnsc2C(c2ccc(F)cc2)NC1c1ccc(F)cc1 (stereo not drawn)
zone of inhibition at 200 ppm [1]: 22 mm | zone of inhibition at 500 ppm [2]: 22 mm | zone of inhibition at 500 ppm [3]: 30 mm | zone of inhibition at 500 ppm [4]: 17 mm | zone of inhibition at 500 ppm [5]: 17 mm | zone of inhibition at 200 ppm [6]: 17 mm | zone of inhibition at 100 ppm [7]: 12 mm | zone of inhibition at 100 ppm [8]: 12 mm | zone of inhibition at 500 ppm [9]: 17 mm | inhibition zone (IZ) [10]: inactive | zone of inhibition at 200 ppm [11]: 17 mm | zone of inhibition at 500 ppm [12]: 17 mm | zone of inhibition at 200 ppm [13]: 17 mm | zone of inhibition at 500 ppm [14]: 17 mm | zone of inhibition at 100 ppm [15]: 12 mm | zone of inhibition at 200 ppm [16]: 17 mm | zone of inhibition at 200 ppm [17]: 17 mm | zone of inhibition at 500 ppm [18]: 22 mm | zone of inhibition at 200 ppm [19]: 22 mm | zone of inhibition at 500 ppm [20]: 17 mm | zone of inhibition at 100 ppm [21]: 17 mm | zone of inhibition at 500 ppm [22]: 30 mm | zone of inhibition at 200 ppm [23]: 12 mm | zone of inhibition at 100 ppm [24]: 12 mm | inhibition zone (IZ) [25]: inactive | zone of inhibition at 100 ppm [26]: 12 mm | zone of inhibition at 500 ppm [27]: 22 mm | zone of inhibition at 200 ppm [28]: 17 mm | zone of inhibition at 200 ppm [29]: 17 mm | inhibition zone (IZ) [30]: inactive | zone of inhibition at 200 ppm [31]: 22 mm | zone of inhibition at 100 ppm [32]: 17 mm | zone of inhibition at 500 ppm [33]: 12 mm | zone of inhibition at 200 ppm [34]: 17 mm | inhibition zone (IZ) [35]: inactive | inhibition zone (IZ) [36]: inactive

From ChEMBL document CHEMBL3045391, “Synthesis and biological evaluation of 5,7-diaryl-4,4-dimethyl-4,5,6,7-tetrahydropyridino[3,4-d]-1,2,3-thiadiazoles” (2007)
